In PubChem BioAssay AID179 (DTP/NCI, 2004):
Activity calls are given as the source filed them.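 The calls were made as follows: active = compounds giving half or more protection of infected cells from virus-caused growth loss, again on retest; inactive = the rest.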 *1 amine or outer side, *2 acyl side, *3 side chain or, on linkers, in order; H or OH if unused. Where a SMILES comes first, the peptide text is derived from it. [ ]: non-standard residue; d: D form. ξ: configuration not given here. X15 = O=C([C@H]1CCC[C@H]1N[*:1])[*:2]; ξW = NC(Cc1c[nH]c2ccccc12)C(=O)O; ξF = NC(Cc1ccccc1)C(=O)O; ξK = NCCCCC(N)C(=O)O; ξT = CC(O)C(N)C(=O)O

Test system: CEM cells HIV-1 protection, formazan growth assay
Experiment: NCI AIDS Antiviral Assay
Details: for IC50: measured here: growth of uninfected CEM cells
Method in brief: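 Category rules: moderately active means at least 50% protection on retest, and confirmed active means 100% protection reproducibly. The underlying data came from a formazan growth assay in HIV-1-infected CEM cells.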

Cc1ccc2c(c1)nc1n2C(N)=Nc2ccccc2S1
EC50: > 200 µM | IC50: 11.5 µM

CCOC1(OCC)C([N+](=O)[O-])=CC(=[N+]([O-])O)C=C1[N+](=O)[O-]
EC50: > 724 µM | IC50: 204 µM

c1ccc(-c2ccc(N=NN3CCCC3)cc2)cc1
EC50: > 200 µM | IC50: 14.8 µM

COc1cc(CO)c(CC(=O)NCCCc2ccccc2)cc1OC
EC50: > 200 µM | IC50: 18.2 µM

CCc1c(CNC2=NCCN2)c(CC)c(CNC2=NCCN2)c(CC)c1CNC1=NCCN1
EC50: > 200 µM | IC50: > 200 µM

COc1ccc2cc1Oc1ccc(cc1)CC1=NCCc3cc(OC)c(cc31)Oc1c(OC)c(OC)c(OC)c3c1[C@H](C2)N(C)CC3
outcome: inactive

O=C(Nc1cccc([N+](=O)[O-])c1)C(=O)C(C(=O)c1ccccc1-c1ccccc1)C1OC(=O)c2ccccc21 (stereo unspecified)
EC50: > 69.2 µM | IC50: 33.1 µM

CCOP(=O)(OCC)/C(C#N)=C/c1cccc([N+](=O)[O-])c1
EC50: > 813 µM | IC50: 166 µM

O=S(=O)(N=S(c1ccc(Cl)cc1)c1ccc(Cl)cc1)c1ccccc1
EC50: > 24.5 µM | IC50: > 24.5 µM

CC(C)(C)[Si](C)(C)OCC1OC(n2ccc(=O)[nH]c2=O)C(O[Si](C)(C)C(C)(C)C)[C@]12N[C@H](C(=O)O)CS2 (stereo partly specified)
EC50: > 200 µM | IC50: 10.7 µM

N=C1/C(=C/c2ccc(F)cc2)C(=O)N=C2SC=NN12
EC50: > 200 µM | IC50: > 200 µM

Cc1ccc([N+](=O)[O-])c2c(NCCCN(C)C)c3ccccc3nc12
EC50: > 0.2 µM | IC50: 0.0513 µM

CC(Oc1ccc(OCC2CCCCC2)cc1)C(=O)O (stereo unspecified)
EC50: > 468 µM | IC50: 457 µM

COc1c(C(=O)c2ccc([N+](=O)[O-])cc2)cc(C(C)(C)C)cc1C(C)(C)C
outcome: inactive

O=c1c(-c2ccc(Cl)cc2)nnc2n(Cc3ccccc3)c3ccccc3n12
EC50: > 200 µM | IC50: > 200 µM

N#C/C=C/c1cccc(Br)c1
EC50: > 47.9 µM | IC50: > 47.9 µM

FC(F)(F)c1ccc2nc(NCc3ccccc3)c(-c3ccccc3)nc2c1
EC50: > 19.1 µM | IC50: > 19.1 µM

CCCCCCCCCCC(=O)CC(=O)c1c(O)cccc1O
outcome: inactive

COc1ccc(C2C(C#N)=C(N)C(C#N)=C3Oc4ccccc4N32)cc1 (stereo unspecified)
EC50: > 200 µM | IC50: > 200 µM

CCCCS(=O)CCC(N)P(=O)(O)O (stereo unspecified)
EC50: > 200 µM | IC50: > 200 µM

OCC1OC(n2ccc3cnccc32)CC1O (stereo unspecified)
outcome: inactive

CN(C)c1cc(CNCCSC(c2ccccc2)(c2ccccc2)c2ccccc2)nc(CNCCSC(c2ccccc2)(c2ccccc2)c2ccccc2)c1
EC50: > 200 µM | IC50: 3.02 µM

CN(C)C(=S)SSSSC(=S)N(C)C
EC50: > 2 µM | IC50: 0.525 µM

COc1ccc(/C=C2\C(=O)N(NC(C)=O)c3ccccc32)cc1
EC50: > 309 µM | IC50: 52.5 µM

N=C(N)c1ccc(NC(=O)c2ccc(C(=O)Nc3ccc(C(=N)N)cc3)c(N)c2)cc1
EC50: 53.7 µM | IC50: > 200 µM

COc1cc2c(cc1OC)-c1cc3ccccc3c(=O)n1CCC2
EC50: > 20 µM | IC50: 2.82 µM

Cc1cc(=O)n(-c2ccccc2)c(=O)n1-c1nc2ccccc2[nH]1
EC50: > 112 µM | IC50: 64.6 µM

CCCc1cc(=O)oc2c3c(c4c(c12)OC(C)(C)C=C4)O[C@H](C)[C@@H](C)[C@@H]3O
EC50: 4.68 µM | IC50: 16.2 µM

O=C(NNC(=O)c1csc(NC(=S)NC2CCCCC2)n1)c1ccccc1
EC50: > 200 µM | IC50: 14.5 µM

CC1=Nc2ccccc2N=C(C)C1
EC50: > 200 µM | IC50: > 200 µM

COc1c(-c2ccccc2)oc2c(ccc3occc32)c1=O
EC50: > 95.5 µM | IC50: > 95.5 µM

CCOC(=O)/C=C/c1cccc(Cl)c1
EC50: > 24.5 µM | IC50: > 24.5 µM

O=C(Nn1c(-c2ccccc2)nc2ccccc2c1=O)c1ccccn1
EC50: > 200 µM | IC50: 123 µM

C/C(=N\NC(=S)N(C)C)c1ccccn1
EC50: > 2.24 µM | IC50: 0.0138 µM

COc1cc(OC)c2ssc3c(OC)cc(OC)c4ssc1c2-c43
EC50: > 13.2 µM | IC50: > 13.2 µM

CCC(C)C(NC(=O)C(CCC(N)=O)NC(=O)CN)C(=O)NC(Cc1ccccc1)C(=O)NC(CO)C(=O)NC(CCCN=C(N)N)C(N)=O (stereo unspecified) (H-GQIFSR-NH2; configuration not given here)
outcome: inactive

Cc1c(O)c(OC2OC(CO)C(O)C(O)C2O)cc2c1CC[C@@H]1C2(C)C(=O)C[C@]2(C)[C@@H]([C@@](C)(O)C(O)CCC(C)(C)O)[C@H](O)C[C@@]12C (stereo partly specified)
EC50: > 200 µM | IC50: > 200 µM

CC(=C(C(=O)O)C(=O)O)c1cc(-c2cccs2)cc(-c2ccc(Cl)cc2)c1O
EC50: > 200 µM | IC50: 12.3 µM

Cc1cc(N(CCC#N)CCC#N)ccc1/C(N=Nc1ccc(Cl)cc1)=N\NC(=O)c1cc(Cl)ccc1O
EC50: > 200 µM | IC50: 102 µM

O=C1CSc2ccccc2-n2cccc21
EC50: > 209 µM | IC50: 105 µM

C=C1C(=O)OC2C3C(=C)[C@@H](OC(C)=O)CC3C(C)=CC(OC(=O)C(C)(OC(C)=O)C(C)OC(C)=O)[C@@H]12 (stereo partly specified)
EC50: > 200 µM | IC50: 10.2 µM

COc1cc(N(C)C)c(OC)cc1C=C1C=CC=C1
EC50: > 977 µM | IC50: 0.407 µM

N#Cc1ccccc1NC(=O)C(=O)C1NC(=S)NC1=O (stereo unspecified)
outcome: inactive

COc1ccc(C2c3cc4c(cc3C(O)C3CCC(=O)N23)OCO4)cc1 (stereo unspecified)
EC50: > 200 µM | IC50: > 200 µM

CCCC(C)C(N)=Nc1ccc(Cl)c(Cl)c1 (stereo unspecified)
EC50: > 200 µM | IC50: 45.7 µM

O=C1OC(CC(=O)c2ccccc2Cl)C(Cl)=C1Cl (stereo unspecified)
EC50: > 117 µM | IC50: 69.2 µM

CC(C)c1c2[nH]c3ccccc3c2c(C(C)C)c2[nH]c3ccccc3c12
EC50: > 20 µM | IC50: > 20 µM

Nc1ccc(-c2cc(C(=O)Nc3nccs3)[nH]c(=S)n2)cc1
EC50: > 759 µM | IC50: 407 µM

COC1=CC(=O)C2C(C1=O)[C@@H]1c3ccccc3C[C@H]21 (stereo partly specified)
EC50: > 195 µM | IC50: > 100 µM

CCN(CC(COc1ccc2c(c1)[n+]([O-])nc(N)[n+]2[O-])OC(C)=O)C(C)=O (stereo unspecified)
EC50: > 200 µM | IC50: 14.8 µM

C[N+](C)(C)CC1CCC/C1=N/O (stereo unspecified)
EC50: > 832 µM | IC50: > 832 µM

c1ccc(C[N+]23CCC(CC2)C3c2ccccc2)cc1 (stereo unspecified)
EC50: > 832 µM | IC50: 148 µM

CN(C)/N=N/c1nc2c(c(=O)n(C)c(=O)n2C)n1CC(O)CO (stereo unspecified)
EC50: > 200 µM | IC50: > 200 µM

CCOC(=O)c1cc(C2CCN(c3ccccc3)C2=O)c(C(=O)/C=C(/C)N)[nH]1 (stereo unspecified)
EC50: 57.5 µM | IC50: > 200 µM

COc1ccc2[nH]c(=O)cc(C)c2c1[N+](=O)[O-]
outcome: inactive

O=C1C2C3C=C4c5ccccc5N(c5ccccc5)C4(C2C(=O)N1Cc1ccccc1)C1C(=O)N(Cc2ccccc2)C(=O)C31 (stereo unspecified)
outcome: inactive

O=C(CN1C(=O)c2cccc3c(Br)ccc(c23)C1=O)c1ccc(Cl)cc1
EC50: > 200 µM | IC50: 33.1 µM

CCOc1ccccc1N1C(=O)C(=O)C(c2nc3ccccc3s2)C(=O)C1=O
EC50: > 18.2 µM | IC50: > 18.2 µM

CCc1cccc(C(C)(C)C)c1NC(=S)NC=C(C#N)C#N
EC50: > 200 µM | IC50: 145 µM

Cc1ccc(S(=O)(=O)C(CCC(=O)c2ccccc2)(CCC(=O)c2ccccc2)[N+](=O)[O-])cc1
EC50: > 10.7 µM | IC50: > 10.7 µM

CCOC(=O)c1c(N)sc2c1CCCCC2
EC50: > 95.5 µM | IC50: > 95.5 µM

Cc1ccc(C(=O)c2c(C)cccc2C(=O)O)c(C)c1
EC50: > 200 µM | IC50: > 200 µM

COC(=O)C1=C(OC)C(=P2(c3ccccc3)CC(c3ccccc3)=C2c2ccccc2)C(C(=O)OC)=C1C(=O)OC (stereo unspecified)
outcome: inactive

Cn1c(=O)c2[nH]c(N=Nc3c(N)n[nH]c3N)nc2n(C)c1=O
EC50: > 200 µM | IC50: > 200 µM

O=c1oc2ccccc2cc1-c1ccccc1
EC50: > 162 µM | IC50: > 162 µM

CC1CCC(O)/C=C/C(=O)OC(C)C(O)/C=C/C(=O)O1 (stereo unspecified)
EC50: > 200 µM | IC50: 10 µM

C=C=C(C)[Si](C)(C)C
EC50: > 200 µM | IC50: > 200 µM

CCCCN=Cc1c(O)c(O)c(C(C)C)c2cc(C)c(-c3c(C)cc4c(C(C)C)c(O)c(O)c(C=NCCCC)c4c3O)c(O)c12
outcome: inactive

S=C(NCCc1ccccn1)N/N=C(\c1ccccc1)c1ccccn1
EC50: > 0.2 µM | IC50: 0.0676 µM

COc1cc2oc(=O)cc(C)c2c(OC)c1OC(C)=O
EC50: > 200 µM | IC50: > 200 µM

OC1COc2ccc(Cl)cc2CSC1 (stereo unspecified)
EC50: > 200 µM | IC50: 166 µM

O=C1CC[C@H](O)Cc2ccc(O)c(c2)-c2cc(ccc2O)CC1O (stereo partly specified)
EC50: > 759 µM | IC50: 724 µM

CC(O)C1NC(=O)C(CCCCN)NC(=O)C(Cc2c[nH]c3ccccc23)NC(=O)C(Cc2ccccc2)NC(=O)[C@H]2CCC[C@H]2NC(=O)C(Cc2ccccc2)NC1=O (stereo partly specified) (cyclo([X15][ξF][ξW][ξK][ξT][ξF]))
EC50: > 200 µM | IC50: > 200 µM

COc1cc(N=Nc2ccccc2C(=O)O)cc(/C=N\NNC(N)=S)c1O
EC50: > 67.6 µM | IC50: 32.4 µM

COc1ccc(N2C(=O)/C(=C\c3cc(OC)c(OC)c(OC)c3)SC2c2ccccc2)cc1 (stereo unspecified)
EC50: > 200 µM | IC50: 51.3 µM

OC1CCC(C#CC#CC2CCC(O)CC2)CC1 (stereo unspecified)
EC50: > 100 µM | IC50: > 100 µM

CCOC(=O)C1(C)C(=O)CC2c3nc4ccccc4cc3CN2C1=O (stereo unspecified)
EC50: > 10 µM | IC50: > 10 µM

CC1(C)CCC(C)(C)c2cc(C(=O)Nc3ccc(C(=O)O)cc3)ccc21
outcome: inactive | IC50: 115 µM

CN=C(NCCCOC)c1ccc(NC(=O)c2ccc(C(=O)Nc3ccc(C(=NC)NCCCOC)cc3)c([N+](=O)[O-])c2)cc1
EC50: > 200 µM | IC50: 19.1 µM

Cc1c(CCl)c(=O)oc2c(C)c3occ(CCl)c(=O)c3cc12
EC50: > 11.2 µM | IC50: 4.9 µM

CCO/C=C1\N=C(c2ccccc2Br)OC1=O
EC50: > 316 µM | IC50: > 316 µM

Nc1ccccc1C(=O)/C=C/c1ccccc1O
EC50: > 74.1 µM | IC50: 52.5 µM

O=C(O)C1CC2C=CCC(C2)C1 (stereo unspecified)
outcome: inactive

COC1CC(CC2CCC(C)C(C(C)C(=O)O)O2)OC2(OC(C)(C3CCC(C)(C4OC(C5OC(O)(CO)C(C)CC5C)CC4C)O3)CC2C)C1C (stereo unspecified)
EC50: 0.0575 µM | IC50: 0.537 µM

C=C(CN(C)C)c1ccccn1
EC50: > 200 µM | IC50: > 200 µM

COc1cc(C(c2ccc3c(c2)OCO3)N2C(=O)CCC2C(=O)O)cc(OC)c1OC (stereo unspecified)
EC50: > 200 µM | IC50: > 200 µM
